Measured values taken from patent US11472807B2, “Purine derivatives for use as medicament and for use in treating neurodegenerative or neuro-inflammatory disorders” (COMMISSARIAT À L'ENERGIE ATOMIQUE ET AUX ENERGIES …, priority 2017, dated 2022).

Legend:
[1] = tested on: non-spatial medium-term memory; experiment: Novel object recognition (NOR) test; assay type: in vivo, C57Bl/6J mice; conditions: WT mice, 8 mg/kg subcutaneous, 28 days
Procedure: FIG. 14. Plots illustrating the effect of Aftin-5 on non-spatial medium-term memory. C57B1/6J mice were exposed sub-cutaneously to (A) the vehicle condition (DMSO/PEG) or (B) Aftin-5 at 8 mg/kg, during 28 days through an Alzet pump. 3-4 weeks later, cognitive abilities were assessed through different novel object recognition (NOR) tests, including the recognition of familiar objects (dark gray bars) or novel objects (light gray bars). Two-way ANOVA and Bonferroni post-hoc tests were performed and *p<0.05 indicates significant differences between Aftin-5 and control conditions, **p<0.01. Data expressed as means+/−SEM with n=15 mice/condition.
The NOR test is a test to assess the medium-term non-spatial memory (object). This test takes place in 3 sessions: the Open Field, the Familiarization session and the Test session. The first session allows the habituation of the mouse to the arena. The mouse is placed in the empty arena for 15 min. During this session, the velocity, locomotor activity and anxiety of the mouse are checked. The second session is to familiarize the animal with objects. For this, 24 hours after the Open Field, the mouse is placed in the arena containing two identical objects. The mouse will explore the arena and the two objects placed in the center for 10 min. Finally, after an interval of pre-established time (24 hours), the mouse is placed again in the same arena. […]

[2] = tested on: amyloid precursor protein (APP); experiment: APP protein expression in neuronal primary cultures (Western blot); assay type: cell-based; conditions: hippocampal neurons, 100 μM, 18 h
Procedure: FIG. 8. Plots illustrating the effect of Aftin-5 on APP protein expression in neuronal primary cultures. Culture medium of hippocampal neurons was replaced by incubation medium containing Aftin-5 (100 μM) or vehicle (0.1% DMSO). 18 h later, APP protein in lysate was quantified by Western blotting with anti-APP polyclonal antibody (Millipore). The Western blots were quantified by densitometric analysis. Relative APP protein expression was expressed (Aftin-5) as comparison with the control condition (vehicle; Ctrl). Data expressed as means+/−SEM from one experiment with n=5 wells/condition.
Hippocampi and cortex were dissected in HBSS containing 5 mM glucose (dissection medium). […] Cells were counted and seeded at a density of 22,000 per cm^2 for hippocampal neurons and 10^5 per cm^2 for cortical neurons into 24 wells culture plates (Costar) in plating medium (DMEM medium containing 10% heat-inactivated horse serum (Life Technologies)). […]
Cells were lysed in freshly prepared lysis buffer containing in mM: Tris-HCl 50, EDTA 2, EGTA 2, NaCl 100, SDS 0.2%, Triton X-100 1%, proteases inhibitors (Roche Protease Inhibitor Cocktail #04693116001), phosphatases inhibitors (in mM: ammonium molybdate 0.1, β-glycerophosphate 20, NaF 50, Na-pyrophosphate 10, Orthovanadate 1). Protein concentration was measured by the Bradford assay and Laemmli buffer was added to each lysate. […]

In the case of `CC[C@H](CO)Nc1nc(N(C)c2ccccc2)c2ncn(C(C)C)c2n1` [Aftin-5], the “improvement of long term object recognition memory in NOR test” value [1] is reported as “does not achieve significance” and the “level of APP” value [2] is reported as “does not change”.
